In PubChem BioAssay (NCI):
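Test compounds were applied to cells in 96-well plates for 48 hours at 5 doses. TGI denotes the concentration required for complete inhibition of growth.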

What was measured:
Experiment in all cases: inhibition of tumour cell growth, NCI panel, 48 h
A549 NSCLC = test system: A549 NSCLC
CAKI-1 renal = test system: CAKI-1 renal
COLO 205 colon = test system: COLO 205 colon
HOP-18 NSCLC = test system: HOP-18 NSCLC
HOP-62 NSCLC = test system: HOP-62 NSCLC
IGROV1 ovarian = test system: IGROV1 ovarian
K-562 leukemia = test system: K-562 leukemia
KM12 colon = test system: KM12 colon
KM20L2 colon = test system: KM20L2 colon
LOX IMVI melanoma = test system: LOX IMVI melanoma
LXFL 529 NSCLC = test system: LXFL 529 NSCLC
M14 melanoma = test system: M14 melanoma
NCI-H226 lung = test system: NCI-H226 lung
NCI-H23 lung = test system: NCI-H23 lung
NCI-H460 lung = test system: NCI-H460 lung
OVCAR-8 ovarian = test system: OVCAR-8 ovarian
SF-268 CNS = test system: SF-268 CNS
SK-MEL-5 melanoma = test system: SK-MEL-5 melanoma
SR leukemia = test system: SR leukemia
U251 CNS = test system: U251 CNS

CCOC(=O)/C(C1=N[C@H](C(=O)OCC)CS1)=C(\O)c1ccccc1
TGI (A549 NSCLC): > 100 µM
TGI (CAKI-1 renal): > 100 µM
TGI (COLO 205 colon): > 100 µM
TGI (HOP-18 NSCLC): > 100 µM
TGI (HOP-62 NSCLC): > 100 µM
TGI (IGROV1 ovarian): > 100 µM
TGI (K-562 leukemia): > 100 µM
TGI (KM12 colon): > 100 µM
TGI (KM20L2 colon): > 100 µM
TGI (LOX IMVI melanoma): > 100 µM
TGI (LXFL 529 NSCLC): > 100 µM
TGI (M14 melanoma): > 100 µM
TGI (NCI-H226 lung): > 100 µM
TGI (NCI-H23 lung): > 100 µM
TGI (NCI-H460 lung): > 100 µM
TGI (OVCAR-8 ovarian): > 100 µM
TGI (SF-268 CNS): > 100 µM
TGI (SK-MEL-5 melanoma): > 100 µM
TGI (SR leukemia): > 100 µM
TGI (U251 CNS): > 100 µM

NNc1nnc(-c2ccccc2)nc1Cc1ccccc1
TGI (A549 NSCLC): > 100 µM
TGI (CAKI-1 renal): > 100 µM
TGI (COLO 205 colon): > 100 µM
TGI (HOP-18 NSCLC): 7.25 µM
TGI (HOP-62 NSCLC): 9.45 µM
TGI (IGROV1 ovarian): > 100 µM
TGI (K-562 leukemia): > 100 µM
TGI (KM12 colon): > 100 µM
TGI (KM20L2 colon): > 100 µM
TGI (LOX IMVI melanoma): 30.5 µM
TGI (LXFL 529 NSCLC): 78.9 µM
TGI (M14 melanoma): 45.5 µM
TGI (NCI-H226 lung): 6.43 µM
TGI (NCI-H23 lung): > 100 µM
TGI (NCI-H460 lung): > 100 µM
TGI (OVCAR-8 ovarian): 39.1 µM
TGI (SF-268 CNS): > 100 µM
TGI (SK-MEL-5 melanoma): > 100 µM
TGI (SR leukemia): > 100 µM
TGI (U251 CNS): > 100 µM

Cc1cc(=O)[nH]c(NN2C(Cl)C(=O)C2c2ccco2)n1 (stereo not given)
TGI (A549 NSCLC): > 100 µM
TGI (COLO 205 colon): > 100 µM
TGI (HOP-18 NSCLC): 58.8 µM
TGI (HOP-62 NSCLC): > 100 µM
TGI (IGROV1 ovarian): > 100 µM
TGI (K-562 leukemia): > 100 µM
TGI (KM12 colon): > 100 µM
TGI (KM20L2 colon): > 100 µM
TGI (LOX IMVI melanoma): > 100 µM
TGI (LXFL 529 NSCLC): > 100 µM
TGI (M14 melanoma): > 100 µM
TGI (NCI-H23 lung): > 100 µM
TGI (NCI-H460 lung): > 100 µM
TGI (OVCAR-8 ovarian): > 100 µM
TGI (SF-268 CNS): > 100 µM
TGI (SK-MEL-5 melanoma): > 100 µM
TGI (SR leukemia): > 100 µM
TGI (U251 CNS): > 100 µM

C/C(=N\NC(=O)c1ccncc1)c1cccc(C(F)(F)F)c1
TGI (A549 NSCLC): > 10 µM
TGI (CAKI-1 renal): > 10 µM
TGI (COLO 205 colon): > 10 µM
TGI (HOP-62 NSCLC): > 10 µM
TGI (IGROV1 ovarian): > 10 µM
TGI (K-562 leukemia): > 10 µM
TGI (KM12 colon): > 10 µM
TGI (LOX IMVI melanoma): > 10 µM
TGI (M14 melanoma): > 10 µM
TGI (NCI-H226 lung): > 10 µM
TGI (NCI-H23 lung): > 10 µM
TGI (NCI-H460 lung): > 10 µM
TGI (OVCAR-8 ovarian): > 10 µM
TGI (SF-268 CNS): > 10 µM
TGI (SK-MEL-5 melanoma): > 10 µM
TGI (SR leukemia): > 10 µM
TGI (U251 CNS): > 10 µM
